{"source": "paper PMC10930102", "about": "(Journal of Enzyme Inhibition and Medicinal Chemistry, 2024)", "key": {"HDAC11": {"biological_target": "T1, HDAC11 (Homo sapiens, UniProt Q96DB2)", "T1 construct": "purchased Reaction Biology Corporation; host or cells: baculovirus expression system in SF9 cells", "T1 sequence (Q96DB2 1-347)": "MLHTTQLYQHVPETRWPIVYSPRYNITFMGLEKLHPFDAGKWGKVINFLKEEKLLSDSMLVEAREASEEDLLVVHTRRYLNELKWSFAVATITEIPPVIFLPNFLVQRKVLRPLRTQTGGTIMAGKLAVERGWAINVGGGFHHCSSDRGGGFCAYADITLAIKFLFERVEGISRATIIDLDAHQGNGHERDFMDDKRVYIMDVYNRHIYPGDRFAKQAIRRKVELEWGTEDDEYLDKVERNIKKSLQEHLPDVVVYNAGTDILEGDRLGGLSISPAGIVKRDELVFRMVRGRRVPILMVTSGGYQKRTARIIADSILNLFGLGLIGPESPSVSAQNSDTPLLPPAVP", "assay": "HDAC inhibition assay (fluorogenic peptide, Reaction Biology)", "assay_type": "biochemical", "conditions": "tested once, ten-dose starting at 30 µM"}, "ALK L1196M": {"biological_target": "T2, ALK L1196M (Homo sapiens, UniProt Q9UM73, L1196M)", "T2 construct": "purchased Reaction Biology Corporation", "T2 sequence (Q9UM73 19-1620 L1196M)": "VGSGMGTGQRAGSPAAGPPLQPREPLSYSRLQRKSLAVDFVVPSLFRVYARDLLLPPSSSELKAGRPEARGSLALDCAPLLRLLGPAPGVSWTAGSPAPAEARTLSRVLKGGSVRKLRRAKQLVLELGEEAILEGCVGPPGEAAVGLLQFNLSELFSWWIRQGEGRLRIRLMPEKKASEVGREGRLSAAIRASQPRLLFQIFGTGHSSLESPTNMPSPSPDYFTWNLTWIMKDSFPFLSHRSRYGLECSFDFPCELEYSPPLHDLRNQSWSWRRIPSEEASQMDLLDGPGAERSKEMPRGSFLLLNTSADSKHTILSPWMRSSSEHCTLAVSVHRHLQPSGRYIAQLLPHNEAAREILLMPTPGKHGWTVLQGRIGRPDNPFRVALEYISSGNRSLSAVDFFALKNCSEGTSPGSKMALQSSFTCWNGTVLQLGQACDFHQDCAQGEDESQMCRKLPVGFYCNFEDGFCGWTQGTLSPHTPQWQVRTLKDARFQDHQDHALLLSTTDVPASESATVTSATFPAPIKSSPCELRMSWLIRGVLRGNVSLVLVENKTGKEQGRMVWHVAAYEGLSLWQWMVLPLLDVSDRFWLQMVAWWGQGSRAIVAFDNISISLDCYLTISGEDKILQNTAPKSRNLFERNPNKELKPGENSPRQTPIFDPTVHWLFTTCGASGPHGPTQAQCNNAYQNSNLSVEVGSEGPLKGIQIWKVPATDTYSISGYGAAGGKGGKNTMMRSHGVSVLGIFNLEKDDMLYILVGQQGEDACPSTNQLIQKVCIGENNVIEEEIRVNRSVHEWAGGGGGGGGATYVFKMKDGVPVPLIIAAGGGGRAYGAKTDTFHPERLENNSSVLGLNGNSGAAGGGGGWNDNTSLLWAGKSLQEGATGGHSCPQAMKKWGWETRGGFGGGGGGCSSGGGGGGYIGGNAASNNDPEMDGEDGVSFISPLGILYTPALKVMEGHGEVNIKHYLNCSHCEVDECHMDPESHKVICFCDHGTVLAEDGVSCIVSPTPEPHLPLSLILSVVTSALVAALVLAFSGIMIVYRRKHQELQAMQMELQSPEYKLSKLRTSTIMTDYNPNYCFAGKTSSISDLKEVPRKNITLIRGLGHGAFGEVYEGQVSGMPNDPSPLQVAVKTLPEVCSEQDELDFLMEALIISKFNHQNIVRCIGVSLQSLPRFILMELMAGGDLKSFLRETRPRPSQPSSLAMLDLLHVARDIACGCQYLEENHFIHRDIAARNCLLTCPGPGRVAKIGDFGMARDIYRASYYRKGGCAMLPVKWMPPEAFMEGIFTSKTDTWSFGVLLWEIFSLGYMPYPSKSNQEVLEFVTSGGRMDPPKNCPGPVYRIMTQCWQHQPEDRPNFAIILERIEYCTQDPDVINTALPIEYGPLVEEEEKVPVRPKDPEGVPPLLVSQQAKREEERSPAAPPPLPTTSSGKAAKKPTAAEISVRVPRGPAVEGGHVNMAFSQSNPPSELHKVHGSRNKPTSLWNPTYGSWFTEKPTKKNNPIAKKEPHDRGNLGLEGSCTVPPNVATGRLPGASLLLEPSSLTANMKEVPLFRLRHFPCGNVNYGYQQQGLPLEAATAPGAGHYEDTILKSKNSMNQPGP", "assay": "ALK mutant in vitro enzymatic assay", "assay_type": "biochemical", "conditions": "20 μM ATP"}}}
{"compound": "CC(C)NC(=O)C1CCC(n2c(=NC(=O)c3ccccc3)[nH]c3cc(C=CC(=O)NO)ccc32)CC1", "note": "[Compound 3b, (E)-N-(5-((E)-3-(Hydroxyamino)-3-oxoprop-1-en-1-yl)-1-((1S,4S)-4-(isopropylcarbamoyl)cyclohexyl)-1H-benzo[d]imidazol-2(3H)-ylidene)benzamide]", "values": [{"measurement": "IC50", "setting": "HDAC11", "result": 16.6, "unit": "µM"}, {"measurement": "IC50", "setting": "ALK L1196M", "result": 0.0049, "unit": "µM"}]}
